Converted amounts (≈) assume the structure as drawn.
Test: Solubility of flibanserin in aqueous media
Format: physicochemical
Conditions: aqueous buffer; in phosphate buffer at pH 5.0
Excerpt: This marginal solubility at higher pH-values of flibanserin makes it difficult to develop extended release dosage forms or in some case even immediate release dosage forms for the following reasons. There is a natural pH gradient from the acidity of the stomach where the pH of physiological fluids are typically around 1-2, through the weakly acidic duodenum to the virtually neutral environment of the small intestine where the pH is in the range of 5-8. There are however cases of non-acidic stomach conditions due to either low production of hydrochloric acid caused by the physiology of the patients (this percentage increases form about 2-10% in young patients to about 10 to 40% in elderly patients) or by coadministration of antacids such as basic agents, H2-blockers or proton pump inhibitors. In those cases dissolution of even immediate release formulations (IRE) may be incomplete in the stomach and absorption might be incomplete or at least delayed.
Within the meaning of the present invention, supersaturation occurs if the active ingredient remains in dissolved status at concentrations far above its saturation solubility in the same aqueous system. […]

O=c1[nH]c2ccccc2n1CCN1CCN(c2cccc(C(F)(F)F)c2)CC1 [Flibanserin, 1,3-dihydro-1-[2-[4-[3-(trifluoromethyl)phenyl]-1-piperazinyl]ethyl]-2H-benzimidazole-2-one]
solubility: 10 µg/mL (≈ 25.6 µM)

From patent US20150224058A1, “FORMULATIONS OF FLIBANSERIN” (Sprout Pharmaceuticals Inc., priority 2008, published 2015)
